In patent US8742106B2 (Novartis AG, priority 2009, dated 2014):

What was measured:
human orexin 1 receptors [1] = target: T1, human orexin 1 receptors (Homo sapiens (Human), UniProt O43613); test: Radioligand Binding Assay II ([3H]-SB649868 competition, cell membranes); conditions: read-out: binding II hOx1R Kd
Experimental: (§1) Radioligand Binding Assay II
(§2) For crude cell membrane preparations, cells (CHO, Chinese hamster ovary or HEK, human embryonic kidney) expressing human orexin 1 or human orexin 2 receptors, were washed with HEPES (10 mM, pH 7.5), scraped off the culture plates with the same buffer, and centrifuged at 4° C. for 5 min at 2500×g. The cell pellet was either stored at −80° C. or used directly. Before the experiments, cell membranes were re-suspended in binding assay buffer (10 mM HEPES, 0.5% (w/v) bovine serum albumin, pH 7.5) by homogenisation with a Polytron homogeniser at 50 Hz for 20 s. Cell membranes were also used as made available by commercial providers.
(§3) Bound radioactivity was measured, and data were analysed with the program XLFIT or Graphpad Prism. Protein concentration was determined according to the Bradford/BioRad Protein Assay Kit.
(§4) In competition experiments, cell homogenates (150 μl) were incubated in assay buffer (10 mM HEPES, pH 7.5, 0.5% (w/v) bovine serum albumin, 5 mM MgCl2, 1 mM CaCl2, and tween 0.05%) for 1 h at room temperature with about 1 nM of the radioligand [^3H]-SB649868, 66 Ci/mmole, 50 μl), and with various concentrations of compounds of the invention (50 μl) in triplicates; non-specific binding was determined in the presence of almorexant (10 μM). Reactions were terminated by vacuum filtration, 3 washes of ice cold wash buffer (Tris-HCl pH 7.4/10 mM, with NaCl 154 mM). Competition data is expressed in Table 2 as Kd [μM].

human orexin 2 receptors [2] = target: T2, human orexin 2 receptors (Homo sapiens (Human), UniProt O43614); test: as above; conditions: read-out: binding II hOx2R Kd
T2 sequence (O43614 whole entry): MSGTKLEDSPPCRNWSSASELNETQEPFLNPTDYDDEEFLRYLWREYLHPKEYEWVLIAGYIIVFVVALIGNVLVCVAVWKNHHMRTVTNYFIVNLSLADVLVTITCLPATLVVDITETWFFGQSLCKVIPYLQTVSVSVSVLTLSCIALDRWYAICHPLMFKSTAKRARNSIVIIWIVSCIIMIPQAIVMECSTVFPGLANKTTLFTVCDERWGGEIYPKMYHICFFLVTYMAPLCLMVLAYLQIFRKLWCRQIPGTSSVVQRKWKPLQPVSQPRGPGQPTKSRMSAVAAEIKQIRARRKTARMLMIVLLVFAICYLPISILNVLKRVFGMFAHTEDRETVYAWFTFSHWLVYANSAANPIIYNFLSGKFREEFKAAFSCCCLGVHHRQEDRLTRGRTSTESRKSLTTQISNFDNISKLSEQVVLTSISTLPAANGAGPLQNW
Experimental: as §1, §2, §3
as §4, with “mM).” for “mM). Competition data is expressed in Table 2 as Kd [μM].”

human orexin 2 receptors [3] = target: T2, human orexin 2 receptors; test: Calcium Accumulation in Cells (FLIPR), antagonism of orexin A; assay type: cell-based; conditions: antagonism of orexin A, Cheng-Prusoff corrected; read-out: FLIPR hOx2R Ki
How it was run: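 Cells expressing human orexin 2 receptor, loaded with Fluo4-AM (2 μM) plus probenecid (0.1 mM) for 1 h, then washed. Antagonism read as inhibition of the orexin A calcium fluorescence signal (FLIPR).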

human orexin 1 receptors [4] = target: T1, human orexin 1 receptors; test: as above; assay type: cell-based; conditions: antagonism of orexin A, Cheng-Prusoff corrected; read-out: FLIPR hOx1R Ki

T1 sequence (O43613 whole entry): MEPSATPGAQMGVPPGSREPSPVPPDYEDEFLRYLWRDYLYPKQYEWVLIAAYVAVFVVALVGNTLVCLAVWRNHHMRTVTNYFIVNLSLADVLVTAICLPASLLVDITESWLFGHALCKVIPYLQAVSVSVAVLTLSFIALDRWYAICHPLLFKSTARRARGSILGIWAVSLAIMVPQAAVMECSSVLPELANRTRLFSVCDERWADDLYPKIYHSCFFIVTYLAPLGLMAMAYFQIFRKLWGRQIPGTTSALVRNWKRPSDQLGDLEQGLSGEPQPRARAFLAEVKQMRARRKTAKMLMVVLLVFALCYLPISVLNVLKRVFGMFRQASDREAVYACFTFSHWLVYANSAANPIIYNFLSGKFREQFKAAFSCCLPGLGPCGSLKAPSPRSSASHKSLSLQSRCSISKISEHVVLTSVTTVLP

| SMILES | Kd (human orexin 1 receptors [1]) [nM] | Kd (human orexin 2 receptors [2]) [nM] | Ki (human orexin 2 receptors [3]) [nM] | Ki (human orexin 1 receptors [4]) [nM] |
| --- | --- | --- | --- | --- |
| COc1ccc2c(c1)CC[C@@H]2NC(=O)C(C)Oc1cc(C)c2c(C3CC3)nn(C)c2n1 (single isomer, unassigned) [Example 6.71, (R or S)-2-(3-cyclopropyl-1,4-dimethyl-1H-pyrazolo[3,4-b]pyridin-6-yloxy)-N-((S)-5-methoxy-2,3-dihydro-1H-inden-1-yl)propanamide] | 589 | 95 | 55 | 348 |
| Cc1ccc([C@H](C)NC(=O)COc2cc(C)c3c(-c4ncccc4F)nn(C)c3n2)cc1 [Example 4.1, (S)-2-((3-(3-fluoropyridin-2-yl)-1,4-dimethyl-1H-pyrazolo[3,4-b]pyridin-6-yl)oxy)-N-(1-(p-tolyl)ethyl)acetamide] | 27 | 22 | 35 | 133 |
| Cc1ccc([C@H](C)NC(=O)COc2cc(C)c3c(-c4ncco4)nn(C)c3n2)cc1 [Example 4.2, (S)-2-(1,4-dimethyl-3-(oxazol-2-yl)-1H-pyrazolo[3,4-b]pyridin-6-yloxy)-N-(1-p-tolylethyl)acetamide] | 10 | 17 | 32 | 67 |
| Cc1ccc([C@H](C)NC(=O)COc2cc(C)c3c(-c4cnn(C)c4)nn(C)c3n2)cc1 [Example 4.6, (S)-2-(1,4-dimethyl-3-(1-methyl-1H-pyrazol-4-yl)-1H-pyrazolo[3,4-b]pyridin-6-yloxy)-N-(1-p-tolylethyl)acetamide] | 76 | 82 | 89 | 247 |
| Cc1ccc([C@H](C)NC(=O)COc2cc(C)c3c(-c4ncccn4)nn(C)c3n2)cc1 [Example 4.7, (S)-2-(1,4-dimethyl-3-(pyrimidin-2-yl)-1H-pyrazolo[3,4-b]pyridin-6-yloxy)-N-(1-p-tolylethyl)acetamide] | 11 | 13 | 9 | 4 |
| Cc1ccc([C@H](C)NC(=O)COc2cc(C)c3c(-c4cnccn4)nn(C)c3n2)cc1 [Example 4.8, (S)-2-(1,4-dimethyl-3-(pyrazin-2-yl)-1H-pyrazolo[3,4-b]pyridin-6-yloxy)-N-(1-p-tolylethyl)acetamide] | 20 | 22 | 15 | 52 |
| Cc1ccc([C@H](C)NC(=O)COc2cc(C)c3c(-c4ccc(C)cn4)nn(C)c3n2)cc1 [Example 4.9, (S)-2-(1,4-dimethyl-3-(5-methylpyridin-2-yl)-1H-pyrazolo[3,4-b]pyridin-6-yloxy)-N-(1-p-tolylethyl)acetamide] | 14 | 19 | 5 | 12 |
| Cc1ccc([C@H](C)NC(=O)COc2cc(C)c3c(-c4cscn4)nn(C)c3n2)cc1 [Example 4.10, (S)-2-(1,4-dimethyl-3-(thiazol-4-yl)-1H-pyrazolo[3,4-b]pyridin-6-yloxy)-N-(1-p-tolylethyl)acetamide] | 5 | 6 | 5 | 5 |
| Cc1ccc([C@H](C)NC(=O)COc2cc(C)c3c(-c4nc(C)cs4)nn(C)c3n2)cc1 [Example 5.1, (S)-2-((1,4-dimethyl-3-(4-methylthiazol-2-yl)-1H-pyrazolo[3,4-b]pyridin-6-yl)oxy)-N-(1-(p-tolyl)ethyl)acetamide] | 4 | 3 | 10 | 10 |
| Cc1ccc([C@H](C)NC(=O)COc2cc(C)c3c(-c4nccs4)nn(C)c3n2)cc1 [Example 5.2, (S)-2-(1,4-dimethyl-3-(thiazol-2-yl)-1H-pyrazolo[3,4-b]pyridin-6-yloxy)-N-(1-p-tolylethyl)acetamide] | 3 | 3 | 1 | 6 |
| COc1ccnc(-c2nn(C)c3nc(OCC(=O)N[C@@H](C)c4ccc(C)cc4)cc(C)c23)n1 [Example 5.3, (S)-2-(3-(4-methoxypyrimidin-2-yl)-1,4-dimethyl-1H-pyrazolo[3,4-b]pyridin-6-yloxy)-N-(1-p-tolylethyl)acetamide] | 7 | 19 | 39 | 10 |
| Cc1ccc([C@H](C)NC(=O)COc2cc(C)c3c(-c4cncs4)nn(C)c3n2)cc1 [Example 5.4, (S)-2-(1,4-dimethyl-3-(thiazol-5-yl)-1H-pyrazolo[3,4-b]pyridin-6-yloxy)-N-(1-p-tolylethyl)acetamide] | 46 | 26 | 11 | 179 |
| COc1nc(-c2nn(C)c3nc(OCC(=O)N[C@@H](C)c4ccc(C)cc4)cc(C)c23)cs1 [Example 5.5, (S)-2-(3-(2-methoxythiazol-4-yl)-1,4-dimethyl-1H-pyrazolo[3,4-b]pyridin-6-yloxy)-N-(1-p-tolylethyl)acetamide] | 15 | 37 | 28 | 21 |
| Cc1ccc([C@H](C)NC(=O)COc2cc(C)c3c(-c4ncc(C)s4)nn(C)c3n2)cc1 [Example 5.6, (S)-2-(1,4-dimethyl-3-(5-methylthiazol-2-yl)-1H-pyrazolo[3,4-b]pyridin-6-yloxy)-N-(1-p-tolylethyl)acetamide] | 4 | 3 | 5 | 6 |
| Cc1ccc([C@H](C)NC(=O)COc2cc(C)c3c(-c4cccc(C)n4)nn(C)c3n2)cc1 [Example 5.7, (S)-2-(1,4-dimethyl-3-(6-methylpyridin-2-yl)-1H-pyrazolo[3,4-b]pyridin-6-yloxy)-N-(1-p-tolylethyl)acetamide] | 10 | 21 | 56 | 46 |
| Cc1ccc2c(n1)CC[C@@H]2NC(=O)COc1cc(C(F)F)c2c(C3CC3)nn(C)c2n1 [Example 6.2, (S)-2-(3-cyclopropyl-4-(difluoromethyl)-1-methyl-1H-pyrazolo[3,4-b]pyridin-6-yloxy)-N-(2-methyl-6,7-dihydro-5H-cyclopenta[b]pyridin-5-yl)acetamide] | 61 | 75 | 50 | 284 |
| COc1ccc2c(c1)CCC2NC(=O)COc1cc(C)c2c(C3CC3)nn(C)c2n1 (stereo not drawn) [Example 6.3, 2-(3-cyclopropyl-1,4-dimethyl-1H-pyrazolo[3,4-b]pyridin-6-yloxy)-N-(5-methoxy-2,3-dihydro-1H-inden-1-yl)acetamide] | 101 |  |  | 192 |
| COc1ccc2c(c1)CC[C@@H]2NC(=O)COc1cc(C)c2c(C3CC3)nn(C)c2n1 [Example 6.5, (S)-2-(3-cyclopropyl-1,4-dimethyl-1H-pyrazolo[3,4-b]pyridin-6-yloxy)-N-(5-methoxy-2,3-dihydro-1H-inden-1-yl)acetamide] | 67 |  |  | 152 |
| Cc1ccc(C(C)(C)NC(=O)COc2cc(C)c3c(C4CC4)nn(C)c3n2)cc1 [Example 6.6, 2-(3-cyclopropyl-1,4-dimethyl-1H-pyrazolo[3,4-b]pyridin-6-yloxy)-N-(2-p-tolylpropan-2-yl)acetamide] | 1010 | 138 | 47 | 606 |
| COc1ccc([C@H](C)NC(=O)COc2cc(C(F)F)c3c(C4CC4)nn(C)c3n2)cc1 [Example 6.7, (S)-2-(3-cyclopropyl-4-(difluoromethyl)-1-methyl-1H-pyrazolo[3,4-b]pyridin-6-yloxy)-N-(1-(4-methoxyphenyl)ethyl)acetamide] | 36 | 27 | 21 | 68 |
| COc1ccc([C@H](C)NC(=O)COc2cc(C)c3c(-c4cc(OC)cc(OC)c4)nn(C)c3n2)cc1 [Example 6.36, (S)-2-(3-(3,5-dimethoxyphenyl)-1,4-dimethyl-1H-pyrazolo[3,4-b]pyridin-6-yloxy)-N-(1-(4-methoxyphenyl)ethyl)acetamide] | 19 | 498 | 323 |  |
| Cc1cc(OCC(=O)NC(C)c2cnc3c(ccn3C)c2)nc2c1c(C1CC1)nn2C (stereo not drawn) [Example 8.1, 2-(3-cyclopropyl-1,4-dimethyl-1H-pyrazolo[3,4-b]pyridin-6-yloxy)-N-(1-(1-methyl-1H-pyrrolo[2,3-b]pyridin-5-yl)ethyl)acetamide] |  |  | 165 | 92 |
